# From ChEMBL document CHEMBL3832541, “DailyMed|setid=33ddfdb1-b4bc-464d-a186-49c4b156279f | DOXORUBICIN HYDROCHLORIDE- doxorubicin hydrochloride injection, solution|Actavis Pharma, Inc”
# “And” between values parts separate entries of the source, which are not always exact repeats. Equal values may be shown once.
# Experiments:
# Assay type in all cases: ADME, organism-based
# [1] = (§1) Evaluation of pharmacokinetic parameters for Doxorubicin hydrochloride following single intravenous administration of Doxorubicin hydrochloride solution to patients with various types of tumors.; conditions: human, dosed compound id 8, dosed compound name DOXORUBICIN HYDROCHLORIDE, regimen Single dose, tissue Plasma, read-out: Protein binding (converted)
# Homo sapiens [2] = assay: as §1; conditions: in vivo, iv, dosed compound id 8, dosed compound name DOXORUBICIN HYDROCHLORIDE, regimen Single dose, tissue Plasma
# Homo sapiens [3] = assay: Evaluation of pharmacokinetic parameters for Doxorubicin hydrochloride following multiple intravenous administration of Doxorubicin hydrochloride solution to children, adolescents and adults subjects; conditions: in vivo, dose 10 to 75 mg/m2, dosed compound id 8, dosed compound name DOXORUBICIN HYDROCHLORIDE, gender male and female, regimen Multiple dose, tissue Plasma
structure (smiles),measurement,setting,value
COc1cccc2c1C(=O)c1c(O)c3c(c(O)c1C2=O)C[C@@](O)(C(=O)CO)C[C@@H]3O[C@H]1C[C@H](N)[C@H](O)[C@H](C)O1.Cl [DOXORUBICIN HYDROCHLORIDE],fraction unbound,[1],0.25
same,CL,Homo sapiens [2]; gender female,433 mL/min/m2
same,t1/2-terminal,Homo sapiens [2]; gender female,35 h
same,CL,Homo sapiens [2]; gender male,1088 mL/min/m2
same,t1/2-terminal,Homo sapiens [2]; gender male,54 h
same,t1/2-distribution,Homo sapiens [2],5 min
same,t1/2-terminal,Homo sapiens [2],20 to 48 h
same,CL,Homo sapiens [3],1443 mL/min/m2 and 1540 mL/min/m2 and 813 mL/min/m2
